{"source": "patent US6447801B1", "about": "“Anti-parasitic action of N,N-diethyl-m-toluamide (deet) and formulations that prolong its activity in the skin” (priority 1997, dated 2002)", "key": {"[1]": {"tested_on": "Amblyoma americanum", "test": "Tick attachment to rabbit ear, Amblyoma americanum", "format": "in vivo", "method": "To determine the effect of DEET on tick attachment and feeding we used two species of ticks Amblyoma americanum and Dermacetor variabilis purchased from University of Oklahoma. Ticks were allowed to feed on the ears of male New Zealand white rabbits purchased from Charles River. For feeding, five ticks were introduced into a 60 μm sieve cell well (Fisher Scientific) which was attached to the ear of the rabbit with nail glue. Ticks were observed every 30 minutes for the first eight hours to assess skin attachment and feeding behavior. Tick attachment was defined as the minimum time required for 3 of the 5 ticks to attach to the ear. […] The observation was continued for 72 hours for both species of ticks. Separate rabbits were used for each species and for each treatment. […] All the ticks in this study were active until attachment.\nIn this series of experiments, the protective effect(s) of different concentrations of DEET and Lipodeet on the attachment of nymphs and adults of two species of ticks, A. americanum and D. variabilis, to the rabbit ear was evaluated. Experiments were set up wherein different concentrations (20% or 40% of DEET or Lipodeet were applied (0.2 ml of the samples to 10 cm^2 surface area), onto the dorsal side of the ear lobes of a rabbit. After allowing the preparation to dry for 30 min., sieve cups (Fisher Scientific, 1″ inner diameter) were then attached to the ear lobes using nail glue. Ten nymphs or five adult ticks were then introduced into the sieve cups every 24 hrs through a small slit made on the sieve membrane. Attachment of ticks to the skin was monitored every 24 hrs. for up to 72 hrs. after introduction of the ticks.\nMore than 60% of ticks used in our experiments were dead after contact with Lipodeet. Although a well-aerated sieve cup was used (1″ inner diameter), we initially thought that the tick mortality may be due to possible DEET vapor trapped within the sieve cup. Therefore, we designed experiments where one half of the surface area of skin within the sieve cup was treated with 40% Lipodeet and the other half was left untreated. Five adults ticks of A. americanum were then introduced into the sieve cups every 24 hrs. After 72 hrs., the sieve cups were removed."}, "[2]": {"tested_on": "cercariae of S. mansoni", "test": "Effect of DEET on the morphology of cercariae (transmission electron microscopy)", "format": "cell-based, Schistosoma mansoni", "method": "Effect of DEET on cercarial morphology was evaluated by transmission electron microscopic studies. In these experiments, approximately 300-500 cercariae of S. mansoni suspended in 100 μl of PBS were placed in each well of a 96 well plate coated with varying concentrations of DEET (ranging from 7.5%-40%) or isopropanol (control) as described above. Samples were collected at 5, 10, 20, 30 and 240 minutes after exposure to DEET and processed for transmission electron microscopy as described in Salafsky et al., Exper. Parasitol., 67:116-127 (1988). Briefly, cercariae collected from each tube were transferred to fresh tubes containing PBS plus 10% fetal bovine serum (Sigma Chemical Co.) and concentrated into a pellet by centrifugation at 500 rpm (300 g) for 5 minutes. The pellet was then fixed overnight at 4° C. in a fixative containing 3% gluteraldehyde, and 1% formaldehyde in a 0.1 M phosphate buffer (pH 7.2). After one hour post fixation in 1% osmium tetroxide the pellet were dehydrated through a graded acetone series and embedded in epon resin. Sections were examined in a Hitachi H-500 transmission electron microscope after staining with uranyl acetate and lead citrate."}, "[3]": {"tested_on": "cercariae of S. mansoni", "test": "Cercarial penetration through mouse skin and worm establishment, application before infection (compressed organ autoradiography)", "format": "in vivo, Schistosoma mansoni", "details": "for protection against schistosomiasis: 10% DEET", "text": "For in vivo animal experiments, male mice of the CD1 strain, weighing approximately 18-20 grams, purchased from Charles River Laboratories (Wilmington, Mass.) were used. The use of animals in these experiments were in compliance with the Animal Welfare Act and other Federal statues and regulations relating to animals as stated in the National Institute of Health publication: Guide for the Care and Use of Laboratory Animals. Mice were infected individually with schistosome cercariae via either tail skin or via shaved abdominal skin. For infection via tail skin, the mouse was restrained in a cage and the tail was dipped for 60 minutes in a tube containing 250-300 ^35S-labeled cercariae suspended in 10 ml of distilled water at room temperature. For infection via abdominal skin, the mouse was restrained on its back. After shaving the abdominal skin, 150-200 ^35S-labeled cercariae were applied to the skin in a drop of distilled water, covered with a cover slip and exposed for 30 minutes.\nTo determine skin penetration and worm establishment, whole tail skin or the area of abdominal skin that was exposed to the cercariae as described above and the lungs were removed from each mouse on day seven after infection and processed for compressed organ autoradiography techniques as described previously (Li J W et al., Parasitology International 46: 55-65 (1997)). Briefly, the skin and lungs were mounted on a cardboard sheet, covered with plastic wrap and kept under a tissue press for 48 hrs at room temperature. The pressed and dried tissue was then exposed to X-ray film (Fuji RX, Fisher Scientific, Pittsburgh, Pa.) at −70° C. for 7-9 days. Following autoradiographic development, the dark spots (which represent reduced silver foci on film) were counted and percent worm establishment was calculated (number of spots/total number of cercariae used for infection X 100).\nFor application of DEET to the tail skin, mice were individually kept in restraining cages and their tail was dipped in 7.5% DEET solution (prepared in isopropanol) for 5 min. Following application the skin was air dried for 30 min, and rinsed in distilled water for 1 min before exposure to radio-labeled cercariae of S. mansoni as mentioned in Example 3.\nFor application of DEET to the abdominal skin, mice were restrained to the back and their abdomen shaved. 200 μl of an appropriate concentration of DEET in isopropanol solution was dropped on to the abdomen and allowed to dry for 15 min. After drying, the skin was washed for 1 min with distilled water and exposed to radio-labeled cercariae for 30 min.\nExperiments were also conducted to see how long the cercaricidal activity of DEET remained in the skin after a single application. In these experiments 10% DEET was applied to the shaved abdominal skin of mice and was allowed to dry. Thirty minutes after DEET application, the area of skin was washed continuously for one minute with running distilled water. At different time points (30 min, 1 hr, 4 hrs, and 24 hrs) after DEET application, mice were infected with radio-labeled cercariae (as described in Example 2) and worm establishment was determined by compressed organ autoradiography (as described in Example 3)."}, "[4]": {"tested_on": "insects", "details": "normally; cited from earlier work"}, "[5]": {"details": "7.5% DEET applied to skin before infection, mice, day 7, n = 10"}}, "note": "Where “and” joins values, the source holds several entries; their conditions need not be identical. Equal values may be shown once.", "data": [{"smiles": "CCN(CC)C(=O)c1cccc(C)c1", "note": "[DEET, N,N-diethyl-m-toluamide]", "values": [{"measurement": "initial time with no tick attachment", "setting": "[1]; 10% DEET on rabbit ear, normal rabbits 20 hours", "value": 22.0, "unit": "h"}, {"measurement": "adult ticks attached", "setting": "[1]; 20%, adults, by 48 hrs (2/10)", "value": 20, "unit": "%"}, {"measurement": "adult ticks attached", "setting": "[1]; 20%, adults, by 72 hrs (6/15)", "value": 40, "unit": "%"}, {"measurement": "prevention of adult tick attachment", "setting": "[1]; 20%, adults, up to 24 hrs", "value": "prevented tick attachment"}, {"measurement": "reduction of attachment of A. americanum nymphs to rabbit ear", "setting": "[1]; 20%, from 24 to 72 hrs, untreated 40% attached", "value": 50, "unit": "%"}, {"measurement": "site of tick attachment, half of the skin in the sieve cup treated", "setting": "[1]; 40%, adult A. americanum, after 72 hrs", "value": "ticks were seen attached to both treated and untreated surfaces"}, {"measurement": "adult ticks attached", "setting": "[1]; 40%, adults, at 48 hrs (1/10)", "value": 10, "unit": "%"}, {"measurement": "adult ticks attached", "setting": "[1]; 40%, adults, by 72 hrs (3/15)", "value": 20, "unit": "%"}, {"measurement": "ticks attached to the skin", "setting": "[1]; 40%, nymphs, by 48 hrs", "value": 20, "unit": "%"}, {"measurement": "prevention of tick attachment", "setting": "[1]; 40%, nymphs, up to 24 hrs", "value": "completely prevented tick attachment to the skin"}, {"measurement": "ultrastructural changes of cercariae", "setting": "[2]; 7.5% DEET, evident as early as five minutes post-exposure", "value": "ultrastructural changes of two types were observed"}, {"measurement": "lysis of cercariae", "setting": "[2]; 240 min after exposure to DEET", "value": "Frank lysis of cercariae"}, {"measurement": "protection against cercarial penetration", "setting": "[3]; 5% DEET applied to mouse skin", "value": 72, "unit": "%"}, {"measurement": "Percent Worm Established, Lungs", "setting": "[3]; [5]", "value": 0}, {"measurement": "Percent Worm Established, Skin", "setting": "[3]; [5]", "value": "0.13 ± 0.01", "unit": "%"}, {"measurement": "Percent Worm Established, Total", "setting": "[3]; [5]", "value": "0.13% and 0.13 ± 0.01%"}, {"measurement": "protection against schistosomiasis", "setting": "[3]; infection 30 min after application, skin washed one minute", "value": 100, "unit": "%"}, {"measurement": "protection against schistosomiasis", "setting": "[3]; infection 24 hrs after application", "value": "no protection at all"}, {"measurement": "protection against schistosomiasis", "setting": "[3]; infection four hours after application", "value": "85±1", "unit": "%"}, {"measurement": "protection against schistosomiasis", "setting": "[3]; infection one hour after application", "value": "98±1", "unit": "%"}, {"measurement": "effectiveness in preventing the entry of cercaria into the mouse skin", "setting": "[3]; DEET at 10, 20 or 40%", "value": 100, "unit": "%"}, {"measurement": "duration of effect under field condition", "setting": "[4]", "value": "eight hours"}]}]}
